For data set [1], the target named is T1, human GLP-1R receptor (Homo sapiens, UniProt P43220).
T1 construct: expressed in transfected cells
Description: GLP-1R low expression cell assay (cAMP TR-FRET, CHO-K1_hGLP-1Rlow_clone10 cells). As to conditions: for EC50: cAMP TR-FRET, 30 min at 25° C.; for Emax: maximum activation relative to control GLP-1 peptide agonist. In kind it is cell-based. The method, boiled down: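 Readout is cAMP TR-FRET after 30 min compound stimulation at 25 °C of a low-GLP-1R-expressing CHO-K1 clone (1,000 cells/well), with 10-point 3-fold serial dilutions. Percent activation versus a control GLP-1 peptide, from duplicates, was Hill-fitted to give EC50.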
On the technique in general: In TR-FRET formats the signal depends on donor and acceptor labels being close together.

Data set [2] can be described thus: Rat pharmacokinetics, oral dosing. The conditions noted are these: male, Sprague-Dawley, oral dosing at 3 mg/kg, plasma; for half-life: read-out: Rat T1/2. Type of data set: in vivo, Sprague-Dawley rats. On the procedure: Intravenous dosing: Compounds were formulated at 1.0 mg/mL in a solution comprising 5% polyethylene glycol 400 and 95% (12% (w/v) sulfobutyl-β-cyclodextrin in water) (v/v). Formulated compounds were sterile filtered through a 0.22 micron filter before dosing. Compounds were administered to male, 7-11-week-old Sprague-Dawley rats by jugular vein cannula infusion over 30 minutes at a dose of 1 mg/kg. Oral dosing: Compounds were formulated at 1.0 mg/mL in a solution comprising 5% polyethylene glycol 400 and 95% (12% (w/v) sulfobutyl-β-cyclodextrin in water) (v/v). Formulated compounds were administered to male, 7-11 week old Sprague-Dawley rats by oral gavage at a dose of 10 mg/kg or 3 mg/kg.
Sample collection: Blood collections of about 0.2 mL per time point were performed from jugular vein or other suitable site of each animal, into pre-chilled commercial EDTA-K2 tubes and placed on wet ice until centrifugation. Blood samples were processed for plasma by centrifugation at approximately 4° C., 3,200 g for 10 min. Plasma was collected and transferred into pre-labeled 96 well plate or polypropylene tubes, quick frozen over dry ice and kept at −60° C. or lower until
Data analysis: Plasma concentration versus time data was plotted in graph and analyzed by non-compartmental approaches using the Phoenix WinNonlin 6.3 software program. Related PK parameters were calculated according to dosing route, e.g., CL, Vdss and C0 for intravenous administration, Cmax, Tmax or % F for extravascular administration, and T1/2, AUC(0-t), AUC(0-inf), MRT(0-t), MRT(0-inf) for all routes.

We go through 16 compounds from patent US20240368120A1 (Terns Pharmaceuticals, Inc., priority 2023, published 2024).

SMILES strings stand for the structures. Bounds are passed on as bounds.

T1 sequence (P43220 24-463): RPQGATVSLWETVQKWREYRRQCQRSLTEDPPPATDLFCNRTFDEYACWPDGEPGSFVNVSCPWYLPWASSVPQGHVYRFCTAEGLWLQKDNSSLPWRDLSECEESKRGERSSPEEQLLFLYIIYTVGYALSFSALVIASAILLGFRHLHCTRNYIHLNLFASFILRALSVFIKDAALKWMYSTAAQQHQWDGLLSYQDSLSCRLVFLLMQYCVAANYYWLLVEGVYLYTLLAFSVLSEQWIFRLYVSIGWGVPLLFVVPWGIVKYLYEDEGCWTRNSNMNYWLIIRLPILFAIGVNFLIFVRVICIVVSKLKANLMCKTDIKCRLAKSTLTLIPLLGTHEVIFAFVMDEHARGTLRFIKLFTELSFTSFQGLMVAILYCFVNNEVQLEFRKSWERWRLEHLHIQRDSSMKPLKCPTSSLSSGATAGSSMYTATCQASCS

The term EC50 denotes the concentration that produces a half-maximal response. Low readings indicate higher potency in that assay, high ones lower potency in that assay. One may read the Emax as the greatest response seen or fitted, relative to the assay's reference. What is called AUC is concentration integrated over time. The low end stands for less exposure, the high end for more exposure. One may read the Cmax as the highest concentration seen after dosing. The bioavailability is dose-corrected exposure relative to a reference, in per cent. Lower therefore signals little systemic uptake. In data set [1], `COc1cc(C#N)ccc1COc1cccc(C2CCN(Cc3nc4c(OC(F)F)cc(C(=O)O)cc4n3C)CC2)n1` [Compound 156, 2-((4-(6-((4-Cyano-2-methoxybenzyl)oxy)pyridin-2-yl)piperidin-1-yl)methyl)-4-(difluoromethoxy)-1-methyl-1H-benzo[d]imidazole-6-carboxylic acid] showed an EC50 of less than 10 nM and an Emax of more than 85%. Also, in data set [2], the AUC lay within 2500 to 10000 ng·h/mL, the Cmax lay within 2000 to 5000 ng/mL, the half-life is less than 1.5 h and the bioavailability lay in the range of 50 to 85%.

In data set [1], `COc1cc(C(=O)O)cc2c1nc(CN1CCC(c3cccc4c3O[C@@](C)(c3ccc(Cl)cn3)O4)CC1)n2C` [Compound 85, (S)-2-((4-(2-(5-Chloropyridin-2-yl)-2-methylbenzo[d][1,3]dioxol-4-yl)piperidin-1-yl)methyl)-4-methoxy-1-methyl-1H-benzo[d]imidazole-6-carboxylic acid] had a 50% effective concentration (EC50) of less than 10 nM and an Emax of more than 85%. In data set [2], the AUC lay within 2500 to 10000 ng·h/mL, the Cmax lay within 1000 to 2000 ng/mL, the half-life was 1.5 to 2.5 h and the bioavailability fell in the range of 25 to 50%.

In data set [1], `CCOc1cc(C(=O)O)cc2c1nc(CN1CCC(c3cccc(OCc4ccc(C#N)cc4F)n3)CC1)n2C` [Compound 298, 2-((4-(6-((4-Cyano-2-fluorobenzyl)oxy)pyridin-2-yl)piperidin-1-yl)methyl)-4-ethoxy-1-methyl-1H-benzo[d]imidazole-6-carboxylic acid] registered an EC50 of less than 10 nM and an Emax of more than 85%. In data set [2], the AUC lay within 500 to 2500 ng·h/mL, the peak concentration (Cmax) was 1000 to 2000 ng/mL, the half-life was not below 2.5 h and the bioavailability fell in the range of 25 to 50%.

In the case of `CC(C)Oc1cc(C(=O)O)cc2c1nc(CN1CCC(c3cccc(OCc4ccc(C#N)cc4F)n3)CC1)n2Cc1cncs1` [Compound 73, 2-((4-(6-((4-Cyano-2-fluorobenzyl)oxy)pyridin-2-yl)piperidin-1-yl)methyl)-4-isopropoxy-1-(thiazol-5-ylmethyl)-1H-benzo[d]imidazole-6-carboxylic acid], in data set [1], the EC50 is less than 10 nM and the Emax was more than 85%. In data set [2], the AUC is less than 500 ng·h/mL, the Cmax is less than 500 ng/mL, the half-life is less than 1.5 h and the bioavailability is less than 25%.

Compound `COCCOc1cc(C(=O)O)cc2c1nc(CN1CCC(c3cccc4c3O[C@@](C)(c3ccc(Cl)cn3)O4)CC1)n2C` [Compound 309, (S)-2-((4-(2-(5-Chloropyridin-2-yl)-2-methylbenzo[d][1,3]dioxol-4-yl)piperidin-1-yl)methyl)-4-(2-methoxyethoxy)-1-methyl-1H-benzo[d]imidazole-6-carboxylic acid] showed an Emax in data set [1] of more than 85%. In data set [2], the AUC is less than 500 ng·h/mL, the peak concentration (Cmax) is less than 500 ng/mL, the half-life was not below 2.5 h and the bioavailability is less than 25%.

As to `Cn1c(CN2CCC(c3cccc(OCc4ccc(C#N)cc4F)n3)CC2)nc2c(OCF)cc(C(=O)O)cc21` [Compound 113, 2-((4-(6-((4-Cyano-2-fluorobenzyl)oxy)pyridin-2-yl)piperidin-1-yl)methyl)-4-(fluoromethoxy)-1-methyl-1H-benzo[d]imidazole-6-carboxylic acid], in data set [1], the half-maximal effective concentration (EC50) is less than 10 nM and the Emax was more than 85%. Further, in data set [2], the AUC was in the range of 500 to 2500 ng·h/mL, the Cmax was 1000 to 2000 ng/mL, the half-life was 1.5 to 2.5 h and the bioavailability was in the range of 50 to 85%.

In data set [1], `Cn1c(CN2CCC(c3cccc(OCc4ccc(C#N)cc4F)c3)CC2)nc2c(OC(F)F)cc(C(=O)O)cc21` [Compound 111, 2-((4-(3-((4-Cyano-2-fluorobenzyl)oxy)phenyl)piperidin-1-yl)methyl)-4-(difluoromethoxy)-1-methyl-1H-benzo[d]imidazole-6-carboxylic acid] yielded an EC50 of 100 to 1000 nM and a maximal response (Emax) of more than 85%. In addition, in data set [2], the Cmax is more than 5000 ng/mL, the half-life lay in the range of 1.5 to 2.5 h and the bioavailability was more than 85%.

In data set [1], `COc1cc(C(=O)O)c(F)c2c1nc(CN1CCC(c3cccc(OCc4ccc(Cl)cc4F)n3)CC1)n2C` [Compound 302, 2-((4-(6-((4-Chloro-2-fluorobenzyl)oxy)pyridin-2-yl)piperidin-1-yl)methyl)-7-fluoro-4-methoxy-1-methyl-1H-benzo[d]imidazole-6-carboxylic acid] came in with an EC50 of less than 10 nM and an Emax of more than 85%. For the same compound, in data set [2], the AUC lay within 2500 to 10000 ng·h/mL, the maximum concentration (Cmax) is 2000 to 5000 ng/mL, the half-life is not below 2.5 h and the bioavailability lay in the range of 50 to 85%.

Consider `Cn1c(CN2CCC(c3cccc(OCc4ccc(Cl)cc4F)n3)CC2)nc2c(OC(F)F)cc(C(=O)O)cc21` [Compound 136, 2-((4-(6-((4-Chloro-2-fluorobenzyl)oxy)pyridin-2-yl)piperidin-1-yl)methyl)-4-(difluoromethoxy)-1-methyl-1H-benzo[d]imidazole-6-carboxylic acid], for which, in data set [1], the 50% effective concentration (EC50) was less than 10 nM and the Emax was more than 85%. For the same compound, in data set [2], the Cmax was more than 5000 ng/mL, the half-life is not below 2.5 h and the bioavailability is more than 85%.

Consider `Cn1c(CN2CCC(c3cccc4c3OC[C@@H](c3ccc(C#N)cc3F)O4)CC2)nc2c(OC(F)F)cc(C(=O)O)cc21` [Compound 300, (R)-2-((4-(2-(4-Cyano-2-fluorophenyl)-2,3-dihydrobenzo[b][1,4]dioxin-5-yl)piperidin-1-yl)methyl)-4-(difluoromethoxy)-1-methyl-1H-benzo[d]imidazole-6-carboxylic acid], for which, in data set [1], the EC50 is 100 to 1000 nM and the Emax is more than 85%. In addition, in data set [2], the Cmax lay within 2000 to 5000 ng/mL, the half-life is not below 2.5 h and the bioavailability was more than 85%.

On to `Cn1c(CN2CCC(c3cccc(OCc4ccc(Cl)cc4F)n3)CC2)nc2ccc(C(=O)O)c(O)c21` [Compound 341, 2-((4-(6-((4-Chloro-2-fluorobenzyl)oxy)pyridin-2-yl)piperidin-1-yl)methyl)-7-hydroxy-1-methyl-1H-benzo[d]imidazole-6-carboxylic acid], for which, in data set [1], the EC50 is 100 to 1000 nM and the Emax was more than 85%.

For `Cn1c(CN2CCC(c3cccc(OCc4ccc(Cl)cc4F)n3)CC2)nc2c(OCC3(F)CC3)cc(C(=O)O)cc21` [Compound 188, 2-((4-(6-((4-Chloro-2-fluorobenzyl)oxy)pyridin-2-yl)piperidin-1-yl)methyl)-4-((1-fluorocyclopropyl)methoxy)-1-methyl-1H-benzo[d]imidazole-6-carboxylic acid], in data set [1], the EC50 fell in the range of 10 to 100 nM and the Emax was more than 85%.

As to `COc1c(OCc2ccc(Cl)cc2F)cccc1C1CCN(Cc2nc3c(OC(F)F)cc(C(=O)O)cc3n2C)CC1` [Compound 171, 2-((4-(3-((4-Chloro-2-fluorobenzyl)oxy)-2-methoxyphenyl)piperidin-1-yl)methyl)-4-(difluoromethoxy)-1-methyl-1H-benzo[d]imidazole-6-carboxylic acid], in data set [1], the EC50 is more than 1000 nM and the Emax is less than 25%.

On to `Cn1c(CN2CC=C(c3ccc(F)c(OCc4ccc(Cl)cc4F)c3)CC2)nc2c(OC(F)F)cc(C(=O)O)cc21` [Compound 152, 2-((4-(3-((4-Chloro-2-fluorobenzyl)oxy)-4-fluorophenyl)-3,6-dihydropyridin-1(2H)-yl)methyl)-4-(difluoromethoxy)-1-methyl-1H-benzo[d]imidazole-6-carboxylic acid], for which, in data set [1], the EC50 lay in the range of 10 to 100 nM and the Emax was more than 85%.

On to `Cn1c(CN2CCC(c3cccc(CCc4ccc(Cl)cc4)n3)CC2)nc2c(OC(F)F)cc(C(=O)O)cc21` [Compound 219, 2-((4-(6-(4-chlorophenethyl)pyridin-2-yl)piperidin-1-yl)methyl)-4-(difluoromethoxy)-1-methyl-1H-benzo[d]imidazole-6-carboxylic acid], for which, in data set [1], the EC50 is more than 1000 nM and the Emax is 25 to 50%.

Turning to `Cn1c(CN2CCC(c3cccc(OCc4ccc(C#N)cc4F)n3)CC2)nc2c(OC(F)(F)F)cc(C(=O)O)cc21` [Compound 125, 2-((4-(6-((4-Cyano-2-fluorobenzyl)oxy)pyridin-2-yl)piperidin-1-yl)methyl)-1-methyl-4-(trifluoromethoxy)-1H-benzo[d]imidazole-6-carboxylic acid], in data set [1], the EC50 was 10 to 100 nM and the Emax is more than 85%.
